# Data as given in paper PMC12314110, “Evaluation of Potential Effects of CYP3A Inhibition and CYP3A Induction on the Pharmacokinetics of Fruquintinib in Healthy Subjects” (Clinical Pharmacology in Drug Development, 2025).
# Experiments:
# [1] = Part B: PK of single-dose fruquintinib alone and with rifampin (CYP3A induction); assay type: in vivo, human; details: for AUC(0-inf) / AUC(0-t) / Cmax / half-life / Tmax / t1/2: fruquintinib in plasma; for AUC(0-inf) / AUC(0-t) / Cmax / half-life / Tmax / t1/2 / CL/F (apparent oral clearance): Part B; for AUC(0-inf) / AUC(0-t) / Cmax / half-life / t1/2 / CL/F (apparent oral clearance): arithmetic mean (SD); for half-life / Tmax: plasma; for Tmax: median (minimum‐maximum), read-out: tmax; for CL/F (apparent oral clearance): fruquintinib
# Description: (§1) This was a single‐center, open‐label, 2‐part (Part A and Part B), 2‐period, fixed‐sequence study conducted in healthy male and female subjects. Parts A and B evaluated the effect of the CYP3A inhibitor itraconazole and the CYP3A inducer rifampin on the PK profile of fruquintinib, respectively. Each part consisted of a screening phase, a treatment phase (Period 1 and Period 2), and an end‐of‐study (EOS) phase. Screening occurred within 21 days before the first study drug administration. There was at least a 14‐day washout of fruquintinib between treatment periods. PK samples were collected before dosing and over 168 hours following the fruquintinib dose in Part A (with itraconazole) and Part B (with rifampin). Part A and Part B were enrolled independently.
# In Part B, subjects were administered fruquintinib alone in Treatment Period 1 and in combination with rifampin in Treatment Period 2. Study Day 1 was considered as the start of Treatment Period 1, and Study Day 8 was considered as the start of Treatment Period 2. On Study Day 1, a single dose of fruquintinib 5 mg by mouth was administered under fasted conditions, and on Study Day 15, a single dose of fruquintinib 5 mg was administered by mouth under fasted conditions alongside rifampin. Starting on Study Day 8, rifampin 600 mg was dosed by mouth once daily for 14 consecutive days, 7 days before fruquintinib dosing and 6 days after fruquintinib dosing, to ensure that induction was maintained throughout the PK sampling period. Subjects therefore received rifampin from Study Day 8 to Study Day 21. Absorption of rifampin is reduced by approximately 30% when the drug is ingested with food.[13] Therefore, rifampin was administered at least 1 hour before breakfast when given alone and under fasted conditions when administered with fruquintinib. Breakfast was given at least 1 hour after the rifampin doses on Study Days 8‐14 and Study Days 16‐21. On Study Day 15, subjects received both treatments under fasted conditions, and rifampin was administered 1hour before administration of a single dose of fruquintinib 5 mg by mouth. Subjects were discharged after completion of EOS procedures on Study Day 22 or at early withdrawal.
# (§2) Blood samples for determination of fruquintinib and metabolite M11 plasma concentrations were collected before dosing and at 0.5, 1, 1.5, 2, 3, 4, 6, 8, 12, 24, 36, 48, 72, 96, 120, 144, and 168 hours after fruquintinib dosing. Plasma samples were analyzed by LabCorp Bioanalytical (Indianapolis, IN) using a validated liquid chromatography with tandem mass spectrometry assay method with an analytical range of 1.00 ng/mL (lower limit of quantitation) to 750 ng/mL (upper limit of quantitation) for both fruquintinib and M11.[6] Interrun variability was 6.3% or less and 13.8% or less for fruquintinib and M11, respectively. Quality control samples at 4 concentrations (3, 30, 300, and 600 ng/mL) were assayed along with study samples, and the bias quality control sample concentrations deviated by ±2.0% and ±2.7% from the nominal concentrations for fruquintinib and M11, respectively.
# (§3) PK parameters were determined by noncompartmental analysis and included maximum plasma concentration (Cmax); time to reach Cmax (tmax); area under the plasma concentration‐time curve (AUC) from time 0 to the time of the last measurable concentration (AUC0‐t); AUC from time 0 to infinity (AUC0‐inf); half‐life (t1/2); and the metabolite‐to‐parent ratios for Cmax, AUC0‐t, and AUC0‐inf. Apparent oral clearance and volume of distribution were also estimated for fruquintinib.
# For Part A, the effect of itraconazole based on the PK parameters of fruquintinib was evaluated using a linear mixed‐effect model with treatment (ie, fruquintinib with itraconazole [test] and fruquintinib alone [reference]) as fixed effects and subject as a random effect. A similar inferential analysis was performed for Part B, but fruquintinib with rifampin was the test group. […]
# [2] = Part A: PK of single-dose fruquintinib alone and with itraconazole (CYP3A inhibition); assay type: in vivo, human; details: for AUC(0-inf) / AUC(0-t) / Tmax / Cmax / half-life / t1/2: fruquintinib in plasma; for AUC(0-inf) / AUC(0-t) / Tmax / Cmax / half-life / t1/2 / CL/F (apparent oral clearance): Part A, n = 14; for AUC(0-inf) / AUC(0-t) / Cmax / half-life / t1/2 / CL/F (apparent oral clearance): arithmetic mean (SD); for Tmax: median (minimum‐maximum); for half-life: plasma; for CL/F (apparent oral clearance): fruquintinib
# Description: as §1
# In Part A, subjects were administered fruquintinib alone in Treatment Period 1 and in combination with itraconazole in Treatment Period 2. Study Day 1 was considered the start of Treatment Period 1, and Study Day 15 was considered the start of Treatment Period 2. On Study Day 1, subjects received a single dose of fruquintinib 5 mg by mouth under fasted conditions (subjects fasted for at least 10 hours before fruquintinib dosing and 4 hours after), and on Study Day 19 subjects received a second single dose of fruquintinib 5 mg by mouth under fasted conditions, alongside itraconazole. On Study Day 15, subjects began a regimen of itraconazole 200 mg by mouth twice a day, followed by once daily dosing on Study Days 16‐25. A dose of 200 mg was selected, with a loading dose as part of a 5‐day lead‐in (twice daily for 1 day, once daily for 4 days) to achieve appropriate inhibition of CYP3A before dosing with fruquintinib.[10] Once‐daily dosing of itraconazole for an additional 5 days throughout the fruquintinib PK sampling period was continued to maintain CYP3A inhibition.[11]
# As itraconazole oral bioavailability is maximal when the capsules are taken immediately after a full meal,[12] it was administered under fed conditions except when coadministered with fruquintinib on Study Day 19. Itraconazole doses were administered 30 minutes after the start of breakfast on Study Days 15‐18 and Study Days 20‐25. On Study Day 19, subjects received both treatments under fasted conditions, and itraconazole was administered 1 hour before administration of a single dose of fruquintinib 5 mg by mouth. Subjects were discharged after completion of EOS procedures on Study Day 26 or at early withdrawal.
# as §2
# as §3, with “fruquintinib. […]” for “fruquintinib.”
# [3] = both sexes, human, oral, fruquintinib 5 mg + rifampin 600 mg, n = 13
# [4] = both sexes, human, oral, fruquintinib alone 5 mg, n = 13
# [5] = fruquintinib 5 mg + rifampin 600 mg, n = 13
# [6] = fruquintinib alone 5 mg, n = 13
# [7] = both sexes, human, oral, fruquintinib 5 mg + itraconazole 200 mg
# [8] = both sexes, human, oral, fruquintinib alone 5 mg
# [9] = fruquintinib 5 mg + itraconazole 200 mg
smiles,measurement,setting,value
CNC(=O)c1c(C)oc2cc(Oc3ncnc4cc(OC)c(OC)cc34)ccc12 [Fruquintinib],AUC(0-inf),[1]; [3],2070 ng·h/mL
same,AUC(0-t),[1]; [3],2020 ng·h/mL
same,Cmax,"[1]; both sexes, human, oral, fruquintinib 5 mg + rifampin 600 mg, n = 13, read-out: Cmax",108 ng/mL
same,AUC(0-inf),[1]; [4],5890 ng·h/mL
same,AUC(0-t),[1]; [4],5640 ng·h/mL
same,half-life,"[1]; both sexes, human, oral, 5 mg, fruquintinib alone 5 mg, n = 13",~34 h
same,Tmax,"[1]; both sexes, human, oral, 5 mg, fruquintinib alone 5 mg, n = 14",3.33 h
same,half-life,[1]; [3],~14 h
same,Tmax,[1]; [3],3 h
same,reduction of fruquintinib AUCs (AUC0‐t and AUC0‐inf),[1]; coadministration with rifampin versus fruquintinib alone,65%
same,t1/2,[1]; [5],14.0 (3.06) hour
same,t1/2,[1]; [6],33.9 (7.76) hour
same,Cmax,"[1]; fruquintinib alone, single 5 mg by mouth, fasted, n = 14",123 (25.5) ng/mL
same,CL/F (apparent oral clearance),[1]; [5],41.9 (7.46) mL/min
same,CL/F (apparent oral clearance),[1]; [6],14.5 (2.22) mL/min
same,AUC(0-inf),[2]; [7],6460 ng·h/mL
same,AUC(0-t),[2]; [7],6040 ng·h/mL
same,Tmax,[2]; [7],4 h
same,AUC(0-inf),[2]; [8],5960 ng·h/mL
same,AUC(0-t),[2]; [8],5730 ng·h/mL
same,Tmax,[2]; [8],2 h
same,Cmax,"[2]; both sexes, human, oral, fruquintinib alone, single 5 mg by mouth, fasted, read-out: Cmax",133 ng/mL
same,half-life,"[2]; both sexes, human, oral, 5 mg, fruquintinib alone 5 mg",~34 h
same,half-life,[2]; [7],~41 h
same,increase of fruquintinib AUCs,[2]; coadministration with itraconazole versus fruquintinib alone,approximately 10%
same,delay of median tmax of fruquintinib,[2]; following coadministration of itraconazole,2 h
same,Cmax,[2]; [9],122 (22.8) ng/mL
same,t1/2,[2]; [9],41.4 (5.96) hour
same,t1/2,[2]; fruquintinib alone 5 mg,33.9 (6.96) hour
same,CL/F (apparent oral clearance),[2]; [9],13.3 (2.59) mL/min
same,CL/F (apparent oral clearance),[2]; fruquintinib alone 5 mg,14.9 (4.14) mL/min
